Values joined by “and” are separate entries in the source; they are usually repeats but may differ in a detail not shown here. Equal values may be shown once. Blank lines part the entries; values can stand above or below the molecule they belong to.
Test system: K-562 leukemia growth, % test/control
Assay: Anticancer human tumor K-562 cell line growth inhibition;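 for viability, T/C: 100% = DMSO vehicle wells and lower values mean fewer viable cells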
Details: spheroids with HUVEC and MSC; for viability, T/C: stronger effect = lower value
In short: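 Complex spheroids of tumor cells with HUVEC and human MSCs, exposed to iadademstat combined with other agents. Each agent tested in half-log steps from near clinical Cmax (else 10 microM top), DMSO ≤0.25%.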

[1] = curve of first compound, second compound 0.1 µM
[2] = curve of first compound, second compound 0.316 µM
[3] = curve of first compound, second compound 1 µM
[4] = curve of first compound, second compound 3.16 µM
[5] = curve of first compound, second compound 10 µM
[6] = second compound 0.1 µM, first compound 0.0316 µM
[7] = second compound 0.1 µM, first compound 0.1 µM
[8] = second compound 0.1 µM, first compound 0.316 µM
[9] = second compound 0.1 µM, first compound 1 µM
[10] = second compound 0.1 µM, first compound 3.16 µM
[11] = second compound 0.1 µM, first compound 10 µM
[12] = second compound 0.316 µM, first compound 0.0316 µM
[13] = second compound 0.316 µM, first compound 0.1 µM
[14] = second compound 0.316 µM, first compound 0.316 µM
[15] = second compound 0.316 µM, first compound 1 µM
[16] = second compound 0.316 µM, first compound 3.16 µM
[17] = second compound 0.316 µM, first compound 10 µM
[18] = second compound 1 µM, first compound 0.0316 µM
[19] = second compound 1 µM, first compound 0.1 µM
[20] = second compound 1 µM, first compound 0.316 µM
[21] = second compound 1 µM, first compound 1 µM
[22] = second compound 1 µM, first compound 3.16 µM
[23] = second compound 1 µM, first compound 10 µM
[24] = second compound 3.16 µM, first compound 0.0316 µM
[25] = second compound 3.16 µM, first compound 0.1 µM
[26] = second compound 3.16 µM, first compound 0.316 µM
[27] = second compound 3.16 µM, first compound 1 µM
[28] = second compound 3.16 µM, first compound 3.16 µM
[29] = second compound 3.16 µM, first compound 10 µM
[30] = second compound 10 µM, first compound 0.0316 µM
[31] = second compound 10 µM, first compound 0.1 µM
[32] = second compound 10 µM, first compound 0.316 µM
[33] = second compound 10 µM, first compound 1 µM
[34] = second compound 10 µM, first compound 3.16 µM
[35] = second compound 10 µM, first compound 10 µM

Structure (SMILES): CC(C)c1c(-c2ccccc2)nc2c(C#N)c[nH]n2c1=O + NC1CC1c1ccc(-c2cccc(O)c2)cc1
IC50 [1]: > 10 µM
IC50 [2]: > 10 µM
IC50 [3]: > 10 µM
IC50 [4]: > 10 µM
IC50 [5]: > 10 µM
viability, T/C [6]: 105%
viability, T/C [7]: 108%
viability, T/C [8]: 102%
viability, T/C [9]: 107%
viability, T/C [10]: 111%
viability, T/C [11]: 106%
viability, T/C [12]: 102%
viability, T/C [13]: 103%
viability, T/C [14]: 102%
viability, T/C [15]: 105%
viability, T/C [16]: 106%
viability, T/C [17]: 98.9%
viability, T/C [18]: 97.8%
viability, T/C [19]: 103%
viability, T/C [20]: 95.5%
viability, T/C [21]: 101%
viability, T/C [22]: 99.4%
viability, T/C [23]: 96.4%
viability, T/C [24]: 102%
viability, T/C [25]: 97.7%
viability, T/C [26]: 100%
viability, T/C [27]: 97.2%
viability, T/C [28]: 99.2%
viability, T/C [29]: 95.9%
viability, T/C [30]: 99.4%
viability, T/C [31]: 96.1%
viability, T/C [32]: 96.5%
viability, T/C [33]: 98.3%
viability, T/C [34]: 98.3%
viability, T/C [35]: 92%

Structure (SMILES): CC1COCCN1c1cc(C2(S(C)(=N)=O)CC2)nc(-c2ccnc3[nH]ccc23)n1 (configuration not stated) + NC1CC1c1ccc(-c2cccc(O)c2)cc1
IC50 [1]: 1.59 µM
IC50 [2]: 1.58 µM
IC50 [3]: 1.5 µM
IC50 [4]: 1.49 µM
IC50 [5]: 1.35 µM
viability, T/C [6]: 115%
viability, T/C [7]: 107%
viability, T/C [8]: 108%
viability, T/C [9]: 77.3%
viability, T/C [10]: 9.88%
viability, T/C [11]: 2.95%
viability, T/C [12]: 100%
viability, T/C [13]: 107%
viability, T/C [14]: 101%
viability, T/C [15]: 77.9%
viability, T/C [16]: 7.2%
viability, T/C [17]: 2.06%
viability, T/C [18]: 105%
viability, T/C [19]: 104%
viability, T/C [20]: 103%
viability, T/C [21]: 74%
viability, T/C [22]: 6.19%
viability, T/C [23]: 1.92%
viability, T/C [24]: 109%
viability, T/C [25]: 105%
viability, T/C [26]: 99.2%
viability, T/C [27]: 72.8%
viability, T/C [28]: 6.87%
viability, T/C [29]: 2.7%
viability, T/C [30]: 105%
viability, T/C [31]: 105%
viability, T/C [32]: 106%
viability, T/C [33]: 65.7%
viability, T/C [34]: 5.01%
viability, T/C [35]: 2.52%

Structure (SMILES): CC1(C)CCC(CN2CCN(c3ccc(C(=O)NS(=O)(=O)c4ccc(NCC5CCOCC5)c([N+](=O)[O-])c4)c(Oc4cnc5[nH]ccc5c4)c3)CC2)=C(c2ccc(Cl)cc2)C1 + NC1CC1c1ccc(-c2cccc(O)c2)cc1
IC50 [1]: 4.65 µM
IC50 [2]: 4.7 µM
IC50 [3]: 4.52 µM
IC50 [4]: 4.47 µM
IC50 [5]: 3.19 µM
viability, T/C [6]: 112%
viability, T/C [7]: 114%
viability, T/C [8]: 118%
viability, T/C [9]: 121%
viability, T/C [10]: 74.6%
viability, T/C [11]: 1.4%
viability, T/C [12]: 104%
viability, T/C [13]: 109%
viability, T/C [14]: 110%
viability, T/C [15]: 114%
viability, T/C [16]: 75.4%
viability, T/C [17]: 1.76%
viability, T/C [18]: 102%
viability, T/C [19]: 106%
viability, T/C [20]: 106%
viability, T/C [21]: 108%
viability, T/C [22]: 71.8%
viability, T/C [23]: 1.59%
viability, T/C [24]: 105%
viability, T/C [25]: 105%
viability, T/C [26]: 107%
viability, T/C [27]: 102%
viability, T/C [28]: 70.7%
viability, T/C [29]: 1.97%
viability, T/C [30]: 102%
viability, T/C [31]: 104%
viability, T/C [32]: 105%
viability, T/C [33]: 104%
viability, T/C [34]: 50.4%
viability, T/C [35]: 1.78%

Structure (SMILES): COc1ccc([C@@H](O)c2cc(-c3ncnc4cc(N5CCOCC5)ccc34)c(F)cc2Cl)nn1 + NC1CC1c1ccc(-c2cccc(O)c2)cc1
IC50 [1]: 7.9 µM
IC50 [2]: 7.53 µM
IC50 [3]: 6.49 µM
IC50 [4]: 4.84 µM
IC50 [5]: 1.16 µM
viability, T/C [6]: 111%
viability, T/C [7]: 107%
viability, T/C [8]: 106%
viability, T/C [9]: 106%
viability, T/C [10]: 93.1%
viability, T/C [11]: 38.8%
viability, T/C [12]: 104%
viability, T/C [13]: 107%
viability, T/C [14]: 101%
viability, T/C [15]: 98.6%
viability, T/C [16]: 85.4%
viability, T/C [17]: 38.2%
viability, T/C [18]: 99.1%
viability, T/C [19]: 98.8%
viability, T/C [20]: 99.5%
viability, T/C [21]: 98.3%
viability, T/C [22]: 77%
viability, T/C [23]: 33.8%
viability, T/C [24]: 103%
viability, T/C [25]: 99.6%
viability, T/C [26]: 94.2%
viability, T/C [27]: 83.5%
viability, T/C [28]: 59.7%
viability, T/C [29]: 32.7%
viability, T/C [30]: 96.6%
viability, T/C [31]: 96.9%
viability, T/C [32]: 66.7%
viability, T/C [33]: 52.9%
viability, T/C [34]: 38.9%
viability, T/C [35]: 24.6%

The next lines start with results.

IC50 (curve of compound): 0.0763 µM and 0.123 µM
Structure (SMILES): O=C(C=Cn1cnc(-c2cc(C(F)(F)F)cc(C(F)(F)F)c2)n1)NNc1cnccn1
viability, T/C (compound 0.00316 µM): 102% and 101%
viability, T/C (compound 0.01 µM): 103%
viability, T/C (compound 0.0316 µM): 92.1% and 101%
viability, T/C (compound 0.1 µM): 37.1% and 58.4%
viability, T/C (compound 0.316 µM): 4.12% and 9.78%
viability, T/C (compound 1 µM): 1.22% and 1.15%

IC50 (curve of compound): < 0.000949 µM
Structure (SMILES): CCc1c2c(nc3ccc(O)cc13)-c1cc3c(c(=O)n1C2)COC(=O)[C@]3(O)CC
viability, T/C (compound 0.000949 µM): 15% and 13.4%
viability, T/C (compound 0.003 µM): 10.5% and 9.22%
viability, T/C (compound 0.00949 µM): 5.78% and 4.21%
viability, T/C (compound 0.03 µM): 2.47% and 1.25%
viability, T/C (compound 0.0949 µM): 0.78% and 0.75%
viability, T/C (compound 0.3 µM): 0.65% and 0.82%

IC50 (curve of compound): > 1 µM
Structure (SMILES): Nc1ncn(C2CC(O)C(CO)O2)c(=O)n1 (configuration not stated)
viability, T/C (compound 0.00316 µM): 94.7% and 99.7%
viability, T/C (compound 0.01 µM): 93.9% and 96.9%
viability, T/C (compound 0.0316 µM): 88.5% and 96.1%
viability, T/C (compound 0.1 µM): 79.7% and 89.2%
viability, T/C (compound 0.316 µM): 72.3% and 74.6%
viability, T/C (compound 1 µM): 67.1% and 75.9%

IC50 (compound alone, run of 02/01/2022): > 10 µM
Structure (SMILES): NC1CC1c1ccc(-c2cccc(O)c2)cc1 (configuration not stated)
viability, T/C (compound 0.1 µM): 109%
viability, T/C (compound 0.316 µM): 104% [middle of 25 runs]
viability, T/C (compound 1 µM): 99.9% [middle of 25 runs]
viability, T/C (compound 3.16 µM): 100% [middle of 24 runs]
viability, T/C (compound 10 µM): 98.8% [middle of 25 runs]

Reference: PubChem BioAssay AID1918948 (Molecular Pharmacology Branch, DTP, NCI, 2023)
